The structures appear in SMILES notation.

The values below come from publication PMC3404738 (International journal for parasitology, drugs and drug …, 2012).

For this test, the system named is A. ceylanicum. Put plainly: In vivo treatment in the hamster model of hookworm infection. Details: species or system Ancylostoma ceylanicum. The following applies: ABZ 10mg/kg once orally, hamsters, 20 DPI, vs infected controls.

For `CCCSc1ccc2nc(NC(=O)OC)[nH]c2c1` [Albendazole, reference compound], the Intestinal worm burdens result is listed as “eliminated intestinal worm burdens”.
